Assay results: US11779597B2, “Method of treating Parkinson's and other neurodegenerative diseases” (Vector Vitale IP LLC, priority 2019, dated 2023)
“Also recorded” adds a separate entry of the source.

How the values were obtained:
[1] = system: LPS rat models of parkinsonism; assay: Apomorphine test in LPS rat models of parkinsonism; format: in vivo
Method: Chronic dopamine deficiency of the left hemisphere was modeled by unilateral destruction of dopaminergic neurons in the Substantia nigra pars compacta portion of the brain. It was induced by stereotactic microinjections of 10 μg endotoxin (lipopolysaccharide) (Lipopolysaccharides from Escherichia coli O111:B4, cat. L2630 Sigma) dissolved in 2 μl sterile 0.9% NaCl (Infuzia CJSC, Ukraine). The solution was prepared on the day of a surgical procedure. A flask containing the resulting solution was sealed with a drop of silicone oil (STEP-E[…], Ukraine) and placed in a refrigerator.
An animal, anesthetized using a mixture of ketamine (75 mg/kg, diluted in sterile water for injection, Sigma, USA) and 2% xylazine ([…], Alfasan International B.V., Netherlands) administered intraperitoneally in a total volume of 1 ml, was placed in a stereotaxic apparatus (SEZH-4) modified for rats. The animal was then scalped and a trephine opening was made with an injection needle, directly into the substantia nigra (AP=−5.3; ML=±2.0; DV=−7.2). Dissolved LPS was collected into a home-made microinjector and its tip was dropped into the trephine opening.
Endotoxin at a dose of 10 μg in a volume of 2 μl was injected in the brain tissue at a rate of […] (every 15 seconds). After endotoxin was administered, the tip of the microinjector remained in the brain tissue for 5 minutes. The microinjector was then removed and stitches were put on the scalp soft tissues of the animal. Control animals were administered 2 μl sterile 0.9% NaCl, instead of LPS (sham operated animals).
The percentage of destroyed dopaminergic neurons was calculated using an apomorphine test. The intensity of rotational motions of an animal to the contralateral side of the hemisphere into which endotoxin was injected was assessed. A similar motor activity was induced by systemic intraperitoneal administration of apomorphine, a dopamine receptor agonist (0.5 mg/kg, Sigma, USA). The intensity of such rotational motions for 30 minutes indicated the degree of degradation of the nigrostriatal dopamine system (SA Talanov et al., Neurophysiology 38 (2), 128-133). The number of animals in which the number of rotations increased, decreased or remained unchanged within 30 minutes between apomorphine test I and II was quantified.
On the 1st day of the experiment, rats were either operated to model hemi-parkinsonism or sham operated. From the 9th to the 18th day of the experiment, the animals were injected either deuterium-depleted water or the test substance, according to their allocation into groups, for 10 days. […]

peritoneal macrophages = assay: Metabolic profile of nonsensitized mouse peritoneal macrophages in vitro; format: cell-based, mice of c57/B6 line; set-up: spontaneous production of reactive nitrogen species by PM: dose or concentration left out as unconfirmed
Method: Materials and methods: Peritoneal macrophages (PM) were isolated from the peritoneal cavity of male mice of c57/B6 line with an average body weight of 22 g without previous sensibilization. The metabolic profile of phagocytes was characterized by the arginine metabolic pathway (by the levels of arginase activity and NO synthesis measured using photocolorimetric methods), the level of formation of intracellular reactive oxygen species (ROS) by esterases and phagocytic activity measured using flow cytometry as well as the levels of NADH and NADPH oxidase activation, as determined in the NBT test. Duration of treatment of a standardized suspension of nonsensitized macrophages from the peritoneal cavity varied depending on the methodological characteristics of metabolic response. A 90 minute exposure to the drugs according to Kim D K, Pfeifer J. Surg Forum. 1977; 28:85-7 was used to analyze their effects on oxidative metabolism and phagocytic activity. An 18 hour exposure according to Lastra M D, et al., J Trace Elem Med Biol. 2001; 15(1):5-10 was used to analyze the effects on arginine metabolic pathway. To analyze the effects of the drugs under study on the induced (stimulated) metabolic activity of phagocytes, the cells were treated with lipopolysaccharide (LPS) from E. coli (Sigma, USA) according to Haddad J J. Mol Immunol. 2009; 47(2-3):205-14. doi: 10.1016/j.molimm.2009.09.034.

## ^64Zn-enriched zinc aspartate [^64Zne-asp]
[1]; 1.5 mg/kg i.v. for 10 days, 2 out of 14 animals
  rats with increased number of rotations between the 1st and 2nd apomorphine tests: 14.3%
[1]; 1.5 mg/kg i.v. for 10 days, 12 out of 14 animals
  rats with a fewer number of rotations between the 1st and 2nd apomorphine tests: 85.7%
[1]; LPS rats, 1.5 mg/kg i.v. for 10 days, listed as 64Zn-asp, 1.5 mg/kg
  difference in the mean number of rotations between the 1st and 2nd apomorphine tests: no significant difference; also recorded: did not cause a significant change
[1]; LPS rats, day 8, before start of treatment
  mean number of rotations, 1st apomorphine test: 91.2±107.7 rot./30 min
Peritoneal macrophages; 10 μg/ml, 90 min
  ROS generation compared with LPS treatment: more expressive stimulation
Peritoneal macrophages; 18-hour exposure
  NO synthesis by bacterial LPS-stimulated PM: statistically significant reduction
  spontaneous production of reactive nitrogen species by PM: statistically significant inhibition
Peritoneal macrophages; 18-hour treatment
  arginase activity of PM: multidirectional weak effect
Peritoneal macrophages; 90 min exposure
  phagocytic activity of nonsensitized PM: did not have a significant effect
Peritoneal macrophages; 90 min treatment
  spontaneous and LPS-stimulated ROS production by macrophages: moderate stimulating effect
  spontaneous or induced activation of NADH and NADPH oxidases (NBT test): did not have a statistically significant effect
